What was measured:
[1] = Cytotoxicity assay (MTT), H6c7 normal pancreatic duct epithelial cells; format: cell-based; conditions: normal human pancreatic duct epithelial cells, mean ± S.E.M., read-out: IC50 against cell viability (cytotoxicity), H6c7
Procedure: (§1) Human cancer cell lines derived from the liver (Hep3B, Huh7) and the lung (A549, H1299) were obtained from American Type Culture Collection (ATCC, Manassas, VA, USA). An H6c7 human normal pancreatic duct epithelial cell line was purchased from Kerafast (Boston, MA, USA). Hep3B, Huh7, and A549 cells were cultured in Dulbecco′s Modified Eagle′s Medium (DMEM) (Hyclone, Logan, UT, USA), and H1299 cells were cultured in an RPMI-1640 medium (Hyclone). The media were supplemented with 10% fetal bovine serum (FBS) (Gibco/ThermoFisher Scientific) and 1% penicillin/streptomycin (Gibco/ThermoFisher Scientific). In the case of H6c7, the cells were maintained in a keratinocyte serum-free medium supplemented with a recombinant […] (rEGF) and bovine pituitary extract (Gibco/ThermoFisher Scientific). All the cells were incubated at 37 °C under a 5% CO2 atmosphere.
The H6c7 cell line was seeded in a 96-well plate in a complete medium. After 24 h, the culture medium was changed into a keratinocyte serum-free medium. […] The optical density was measured at 540 nm using a Spectrostar Nano microplate reader (BMG LABTECH).

Hep3B cells [2] = assay: Apoptosis by annexin V-FITC/PI FACS, Hep3B; format: cell-based; conditions: Homo sapiens, 48 h, Q4 lower left, annexin V-FITC and PI negative, read-out: FACS quadrant Q4 viable cells, Hep3B
Procedure: (§2) Then, the cells were stained with propidium iodide and Annexin V-FITC using a FITC Annexin V apoptosis detection kit (BD Biosciences, San Jose, CA, USA) as per the manufacturer’s instructions. Briefly, the vehicle- or the drug-treated cells (1 × 10^5) were washed with ice-cold PBS twice and suspended in 1× binding buffer (100 μL). Then, 5 μL of Annexin V-FITC and 5 µL of PI were added, gently vortexed, and incubated for 15 min at 25 °C in the dark. Thereafter, 400 µL of 1× binding buffer was added and analyzed by flow cytometry (FACSVerse Cytometer, BD Biosciences).

A549 cells [3] = assay: Apoptosis by annexin V-FITC/PI FACS, A549; format: cell-based; conditions: Homo sapiens, 48 h, Q4 lower left, annexin V-FITC and PI negative, read-out: FACS quadrant Q4 viable cells, A549
Procedure: as §2

[4] = system: Hep3B cells xenografted onto CAM; assay: Hep3B xenografted CAM tumor model; format: in vivo, chick; conditions: 30 and 150 pmol/CAM, 4 days of incubation
Procedure: Fertilized chicken eggs were purchased from Byeolbichon Farm (Gyeongbuk, South Korea) and incubated at 37 °C with 55% relative humidity. On day 9 of egg incubation, a small hole was made in the shell over the air sac after the selection of bifurcated vessels. Another hole was made on the broadside using a needle by applying negative pressure to the wider part, creating false air sac. Using a grinding wheel (Dremel, Racine, WI, USA), a small window (1 cm^2) was created in the eggshell above the false air sac. […] The mixture was inoculated on the CAM (final drug doses = 30 and 150 pmol/CAM), and the anti-tumor activity of the drugs was compared at the same concentrations. After sealing the window in the eggshell, the eggs were then returned to the incubator. After 4 days of incubation, tumor tissues attached to CAM were resected from the embryo and harvested. The number of vessel branch points within the tumor region was counted and analyzed using ImageJ software. Chick embryo experiments were performed in accordance with the institutional guidelines of the Institute of Laboratory Animal Resources (1996) and Yeungnam University for the care and use of laboratory animals (2009). The experiment protocol was reviewed and approved by the Institutional Animal Care and Use Committee at the Yeungnam University.

[5] = system: several cancer cell lines; set-up: method as in PMID 27145715; conditions: cited from earlier work
normal cell lines = system: normal cell lines; set-up: method as in PMID 27145715; conditions: cited from earlier work
A549 cells [6] = assay: Proliferation assay (MTT), A549; format: cell-based; conditions: Homo sapiens, NSCLC cell line, 48 h, mean ± S.E.M., read-out: IC50 against cell proliferation, A549
Source text: as §1, with “Hep3B, Huh7, and A549 cells were cultured in Dulbecco′s Modified Eagle′s Medium (DMEM) (Hyclone, Logan, UT, USA), and H1299 cells were cultured in an RPMI-1640 medium (Hyclone).” left out, “Scientific).” for “Scientific). All the cells were incubated at 37 °C under a 5% CO2 atmosphere.”
(§3) HCC (Hep3B, Huh7) and NSCLC (A549, H1299) cell lines were seeded in a 96-well plate at a density of 2.5 × 10^4 cells/mL in complete media and allowed to adhere for 24 h. […] Then, the media were removed, and 200 µL of dimethyl sulfoxide (DMSO) (Duksan, Ansan, South Korea) was added to solubilize the formazan crystal. After a 30 min incubation, the absorbance was measured at 540 nm using a microplate reader (BMG LABTECH, Ortenberg, Germany).

Hep3B cells [7] = assay: Proliferation assay (MTT), Hep3B; format: cell-based; conditions: Homo sapiens, HCC cell line, 48 h, mean ± S.E.M., read-out: IC50 against cell proliferation, Hep3B
Source text: as §1, with “Hep3B, Huh7, and A549 cells were cultured in Dulbecco′s Modified Eagle′s Medium (DMEM) (Hyclone, Logan, UT, USA), and H1299 cells were cultured in an RPMI-1640 medium (Hyclone).” left out, “Scientific).” for “Scientific). All the cells were incubated at 37 °C under a 5% CO2 atmosphere.”
as §3

Huh7 cells = assay: Proliferation assay (MTT), Huh7; format: cell-based; conditions: Homo sapiens, Huh-7, HCC cell line, 48 h, mean ± S.E.M., read-out: IC50 against cell proliferation, Huh7
Source text: as §1, with “Hep3B, Huh7, and A549 cells were cultured in Dulbecco′s Modified Eagle′s Medium (DMEM) (Hyclone, Logan, UT, USA), and H1299 cells were cultured in an RPMI-1640 medium (Hyclone).” left out, “Scientific).” for “Scientific). All the cells were incubated at 37 °C under a 5% CO2 atmosphere.”
as §3

human c-Met kinase = target: T1, human c-Met kinase (Homo sapiens, UniProt P08581); assay: c-Met kinase assay (Kinase HotSpot, Reaction Biology); format: biochemical; conditions: for c-Met inhibition at fixed concentration / inhibition at 1 µM: 1 μM compound; for c-Met inhibition at fixed concentration: 1 µM; for inhibition at 1 µM: read-out: c-Met inhibition at fixed concentration; for IC50: three independent experiments, ATP 10 μM, read-out: IC50 against c-Met kinase
T1 construct: purchased Reaction Biology Corporation (Malvern, PA, USA), contract assay service
Procedure: Briefly, human c-Met kinase (5–10 mU) and peptide substrate ([…], 20 µM) were prepared in a reaction buffer with a final volume of 25 μL. The compounds were delivered into the reaction, followed ~20 min. later by the addition of a mixture of ATP and [γ-33P-ATP] (specific activity approx. 500 cpm/pmol, concentration as required) to a final concentration of 10 μM. […] Then, the reaction was spotted onto a P30 filtermat, and unbound phosphate was removed by washing 3 times for 5 min in 75 mM phosphoric acid and once in methanol prior to drying and scintillation counting. […] IC50 values and curve fits were obtained using GraphPad Prism 5 software.

H1299 cells = assay: Proliferation assay (MTT), H1299; format: cell-based; conditions: Homo sapiens, NCI-H1299, NSCLC cell line, 48 h, mean ± S.E.M., read-out: IC50 against cell proliferation, H1299
Source text: as §1, with “Hep3B, Huh7, and A549 cells were cultured in Dulbecco′s Modified Eagle′s Medium (DMEM) (Hyclone, Logan, UT, USA), and H1299 cells were cultured in an RPMI-1640 medium (Hyclone).” left out, “Scientific).” for “Scientific). All the cells were incubated at 37 °C under a 5% CO2 atmosphere.”
as §3

c-MET = assay: Immunoblotting of c-MET expression and phosphorylation in HCC and NSCLC cell lines; format: cell-based, human; conditions: 10 μM, 24 and 48 h; Hep3B, Huh7, A549, H1299 cells
Procedure: The cells (3.5 × 10^5) were seeded into a 60 mm dish and allowed to attach for 12 h. […] Cell lysates were collected in a radioimmune precipitation assay (RIPA) buffer containing a protease and phosphatase inhibitor cocktail (Thermo Fisher Scientific). Cell extracts were centrifuged at 17,000× g for 15 min, and the protein levels in collected supernatants were measured using a BCA protein assay reagent (Pierce; Rockford, IL, USA). The proteins were separated by SDS-PAGE and transferred at 200 mA to Hybond ECL nitrocellulose membranes (Amersham Life Science, Buckinghamshire, UK) for 1 h. Non-specific binding was blocked using 5% bovine serum albumin (BSA) in Tris-buffered saline (TBS)-Tween 20 (TBS-T) for 1 h. […] The membranes were then washed, incubated with ECL (Pierce, Appleton, WI, USA) detection reagent, and exposed under a luminescent image analyzer, LAS-4000mini. β-Actin was used as the loading control.

T1 sequence (P08581 25-1390): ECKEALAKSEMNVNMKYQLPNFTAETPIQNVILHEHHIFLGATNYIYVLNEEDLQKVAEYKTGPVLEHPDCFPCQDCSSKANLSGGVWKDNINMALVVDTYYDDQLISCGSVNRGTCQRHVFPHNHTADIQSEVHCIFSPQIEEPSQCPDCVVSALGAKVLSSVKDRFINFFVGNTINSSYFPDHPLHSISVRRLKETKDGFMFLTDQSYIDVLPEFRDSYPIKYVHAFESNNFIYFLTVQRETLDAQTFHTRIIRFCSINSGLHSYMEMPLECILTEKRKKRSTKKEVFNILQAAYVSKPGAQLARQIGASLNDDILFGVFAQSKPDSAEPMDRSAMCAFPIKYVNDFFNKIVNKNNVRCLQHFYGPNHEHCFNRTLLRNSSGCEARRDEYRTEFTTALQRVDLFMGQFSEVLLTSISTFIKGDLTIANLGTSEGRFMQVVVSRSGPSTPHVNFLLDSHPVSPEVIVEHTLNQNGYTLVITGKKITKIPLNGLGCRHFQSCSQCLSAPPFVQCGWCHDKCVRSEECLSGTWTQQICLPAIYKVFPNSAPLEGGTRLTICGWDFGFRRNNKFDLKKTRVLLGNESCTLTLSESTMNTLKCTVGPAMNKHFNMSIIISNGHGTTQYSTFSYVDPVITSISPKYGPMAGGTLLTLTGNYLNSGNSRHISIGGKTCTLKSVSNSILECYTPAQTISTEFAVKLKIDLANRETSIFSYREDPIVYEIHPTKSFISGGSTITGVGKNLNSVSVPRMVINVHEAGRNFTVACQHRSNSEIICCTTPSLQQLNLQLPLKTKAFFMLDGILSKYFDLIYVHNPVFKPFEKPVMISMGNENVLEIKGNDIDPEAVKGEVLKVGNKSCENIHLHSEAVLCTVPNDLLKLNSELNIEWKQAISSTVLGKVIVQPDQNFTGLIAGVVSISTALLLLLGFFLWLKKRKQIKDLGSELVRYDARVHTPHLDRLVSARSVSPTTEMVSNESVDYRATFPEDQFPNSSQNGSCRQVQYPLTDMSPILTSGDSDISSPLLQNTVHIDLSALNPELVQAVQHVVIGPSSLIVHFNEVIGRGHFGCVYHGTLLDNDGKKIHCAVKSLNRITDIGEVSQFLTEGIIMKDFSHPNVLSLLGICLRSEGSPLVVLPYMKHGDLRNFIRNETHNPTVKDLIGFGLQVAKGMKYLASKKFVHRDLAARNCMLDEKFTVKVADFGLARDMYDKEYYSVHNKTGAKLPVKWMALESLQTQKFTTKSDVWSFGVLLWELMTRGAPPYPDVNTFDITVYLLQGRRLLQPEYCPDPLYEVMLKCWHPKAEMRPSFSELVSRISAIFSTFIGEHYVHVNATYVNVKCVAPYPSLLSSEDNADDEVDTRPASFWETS

SMILES	IC50 at 48 h [1]	viability at 10 µM (Hep3B cells [2])	viability at 10 µM (A549 cells [3])	Tumor-induced angiogenesis (number of new vessel branches) [4]	Anti-cancer activity against several cancer cell lines compared to sunitinib [5]	Toxicity to normal cell lines compared to sunitinib (normal cell lines)	IC50 (A549 cells [6])	IC50 (Hep3B cells [7])	IC50 (Huh7 cells)	c-Met inhibition at fixed concentration (human c-Met kinase)	inhibition at 1 µM (human c-Met kinase)	IC50 (human c-Met kinase)	IC50 (H1299 cells)	melting point	Expression of c-MET and its phosphorylation (c-MET)	Inhibitory effect on tumor weight [4]
COc1cc2nccc(Oc3ccc(NC(=O)C4(C(=O)Nc5ccc(F)cc5)CC4)cc3)c2cc1OC [Cabozantinib, cabozantinib, reference compound]	39.4 ± 4.3 µM	79.5%	81.3%	significantly blocked	–	–	–	–	–	–	–	–	–	–	–	–
CCN(CC)CCNC(=O)c1c(C)[nH]c(/C=C2\C(=O)Nc3nc(C)c(O)c(C)c32)c1C [Compound 1]	–	–	–	–	comparable anti-cancer activity	less toxic to normal cell lines	–	–	–	–	–	–	–	–	–	–
COc1cc2nccc(Oc3c(C)nc(NC(=O)C4(C(=O)Nc5ccc(F)cc5)CC4)c(C)c3C)c2cc1OC [Compound 3]	> 100 µM	–	–	–	–	–	> 100 µM	> 100000 nM	> 100 µM	4%	3.8%	> 1000 nM	> 100 µM	141 °C	–	–
COc1cc2nccc(Oc3ccc(NC(=O)C4(C(=O)Nc5ccc(F)cc5)CC4)nc3)c2cc1OC [Compound 4]	19.9 ± 1.8 µM	35.3%	61.8%	significantly blocked	–	–	12.4 ± 6.9 µM	2100 ± 500 nM	6.2 ± 1.8 µM	94%	94.3%	4.9 ± 2.3 nM	8.9 ± 1.2 µM	119 °C	significantly reduced	greater than that of cabozantinib

— article PMC8468607 (International Journal of Molecular Sciences, 2021)
